From patent US5512573A, “Use of phthaloylhydrazide derivatives as anti-hypoxic and defensive agents” (priority 1993, dated 1996)
In brackets after ≈: the same amount, converted by molar mass. Read-outs that look alike come from different tables or passages of the source.

How the values were obtained:
[1] = test system: S. typhi TA 100, TA 102, and TA 97; test: Mutagenicity, Ames' bacterial testing method; conditions: 0.01 and 2 mg/ml; rat liver microsomes
Description: Mutagenicity was measured by means of Ames' bacterial testing method. The tests were performed with strains of S. typhi TA 100, TA 102, and TA 97. The microsome activator method was used whereby rat liver was induced with methylcolanthrene.

[2] = test system: lymphocytes, macrophages and fibroblasts; conditions: 24-hour in vitro, 0.01 to 0.8 mmols/liter
Description: The cells used as subject matter included lymphocytes, macrophages and fibroblasts. Viability following a 24-hour in vitro exposure with 5-aminophthaloylhydrazide in concentrations of 0.01 to 0.8 mmols/liter was determined by means of protein incorporation and/or synthesis.

animal organisms = test: Pharmacological studies, general toxicity statement; conditions: in vivo
mice, rats = conditions: oral and i.p., 500 and 2500 mg/kg, 14 days
Description: Acute toxicity tests were performed on two animal species (mice, rats). More than 80 mice and 100 rats were used. The pharmaceutical was administered orally and intraperitoneally in doses of 500 and 2500 mg/kg (individual doses). The period of observation was 14 days.

male rats = test system: male rats
Description: The effect of the sodium salt of 5-aminophthaloylhydrazide on blood pressure (BP) was examined in male rats weighing 230 to 270 g, in a controlled experiment where the rats were anesthetized with urethane. The blood pressure was recorded on tape by means of an electrical kymograph.
At the same time, we recorded the electrocardiogram in the second standard position as well as any changes in frequency and depth of respiration by means of a Morey capsule. We administered 5-aminophthaloylhydrazide in the femoral vein in the form of an aqueous solution prepared in a 2% sodium bicarbonate solution (pH=8.2), in doses of 40 mg/kg, 80 mg/kg and 50 mg/kg. Research on 5-aminophthaloylhydrazide was performed on 16 rats.

guinea pigs = test system: guinea pigs
Description: The allergenic activity of the drug was examined in guinea pigs.

[3] = test system: leukocytes in ischemic tissue; surviving animals; conditions: intramuscular injections, p>0.05
transplant rejection = test: Skin transplant from another animal (description); assay type: in vivo; conditions: 100 to 200 mg/kg
Description: Treatment started on the second day following a skin transplant from another animal and continued for 45 to 50 days.

[4] = test system: high-level hypoxia in male mice
Description: Experiments to test the resistance of the animals to high-level hypoxia were performed on 120 male mice weighing 18 to 20 g, and having reached sexual maturity.
Five minutes before the experiment, the animals were given the following doses intramuscularly:
the first group (control group), 0.1 ml of physiological solution;
the second group (test group), a 20% oil solution in a dose of 30 mg/kg;
the third group, 5-aminophthaloylhydrazide in a dose of 30 mg/kg;
the fourth group, 5-aminophthaloylhydrazide in a dose of 60 mg/kg;
the fifth group, 5-aminophthaloylhydrazide in a dose of 80 mg/kg;
the sixth group, 5-aminophthaloylhydrazide in a dose of 150 mg/kg;
the seventh group, the drug in a dose of 200 mg/kg.
The period of tolerance to hypoxia was determined by raising the animals to an altitude of 10,400 meters at the speed of 100 meters per second.

[5] = test system: skin transplant rejection in chinchillas; conditions: intravenous, p<0.01
Description: The experiments involved 30 chinchillas from which a strip of skin was removed measuring 2×2 cm. The resulting lesion was covered by an outside transplant. The animals were divided into three groups.
The first group was treated with traditional therapy (prednisolone and cyclosporine); the second group was given 5aminophthaloylhydrazide daily in a dose of 150 mg/kg; the third group received a combined treatment.
To assess the efficacy of the drug, the period before the rejection was measured and morphological studies were conducted.

[6] = test system: Corazolum- and strychnine-induced convulsions; conditions: 40 and 80 mg/kg
male mice = conditions: 40 to 80 mg/kg
Description: To study the pharmacological properties on the central nervous system, doses of 40 to 80 mg per kilogram of body weight were used. The choice of doses was based on safety criteria governing the use of medicines.
The neuropharmacological effects were studied in male mice of undefined strain which had reached sexual maturity. The mice, weighing 18 to 20 g, were given a solution of the drug intraabdominally. The neuropharmacological effects were studied on the basis of changes in the natural orientation reflex, in induced aggressiveness, and in muscle tone. The change in the natural sense of orientation was recorded according to the current method. To study the effect of the drug on induced aggressiveness, the electrical stimulation method (pain caused by electric current) was used.
The change in muscle tone was measured by means of the "pivot pin" method.

[7] = Summary of experiments on phthaloylhydrazide derivatives; assay type: in vivo
Hexenalum-induced sleep = conditions: 10 to 30 mg/kg, 15 min before Hexenalum 80 mg/kg
Description: The effect of the drug on the length of Hexenalum-induced anesthesia was studied, i.e., the drug was administered in doses of 10 to 30 mg per kilogram of body weight, 15 minutes before the administration of the Hexenalum solution in a dose of 80 mg/kg.

Nc1cccc2c(=O)[nH][nH]c(=O)c12 [5-aminophthaloylhydrazide, 5-amino-2,3-dihydrophthalazine-1,2 dione]
inhibitory or mutagenic activity [1]: does not posses inhibitory or mutagenic activity
toxicity (viability by protein incorporation and/or synthesis) [2]: No toxicity was observed for any of the dosage levels tested
toxicity in animal organisms (animal organisms): absence of toxicity
solubility (physchem; pH 6.5): 2 mM (≈ 354 µg/mL)
solubility (physchem; pH 7.4): 12 mM (≈ 2130 µg/mL)
morphological alteration of liver, kidneys, heart and brain (mice, rats): No morphological alteration was observed
percentage of lethal outcome (mice, rats; vs control group): did not exceed that of the control group
clinical symptoms (generalized psoriasis; 20 mg/kg for 10 days): elimination of the itching and a lessening of the skin symptoms
skin clearance (generalized psoriasis; after a 30-day treatment): the skin was completely clear
number of neutrophils in the epidermal cells (generalized psoriasis; biopsy samples): considerable drop in the number of neutrophils in the epidermal cells
remission period (generalized psoriasis; human, in vivo): 8 months
skin symptoms after topical application (generalized psoriasis; solution of the drug in 15% DMSO): led quickly to the disappearance of the skin symptoms, including the pustules
electrocardiogram parameters (male rats; 20 mg and 50 mg/kg): no changes were observed in the electrocardiogram parameters of the heart
respiratory functions (male rats; 20 mg and 50 mg/kg): no impairment of the respiratory functions was observed
negative effect on the cardiovascular system or the respiration (male rats; 40 and 50 mg/kg): did not present any evidence of a negative effect on the cardiovascular system or the respiration
rise in blood pressure compared to the initial level (male rats; i.v. 1% solution, 0.6 ml/minute, average): 1.57±5.93%
sudden fluctuations in the increase in blood pressure (male rats; i.v., 40 mg or 50 mg/kg): No sudden fluctuations in the increase in blood pressure were observed
time for blood pressure to return to the initial level (male rats; i.v., average): ≤ 30 min
fluctuations in the level of blood pressure compared to the beginning (male rats; thirty minutes after administration, average): 2.79±0.72
local irritation (guinea pigs; 20 to 100 mg): no symptoms of local irritation
erythema at the site of administration (guinea pigs; even large doses): No erythema was observed at the site of administration
signs of allergy (guinea pigs; subcutaneously or orally): No signs of allergy were observed
percentage of surviving animals [3]: 60%
effects of acute focal hypoxia (acute focal hypoxia; in a series of cases): it was possible to prevent the effects of acute focal hypoxia
therapeutic effect by number of administrations (acute focal hypoxia; single vs two administrations at 12-hour intervals): a single administration of the drug proved insufficient and the main therapeutic effect was obtained after two administrations
effectiveness vs hormonal drugs (corticosteroids) (transplant rejection): exceeds the hormonal drugs with long-term action known thus far (corticosteroids)
therapeutic effectiveness vs Dibunolo ([4]; 30 mg/kg): less therapeutically effective than the known antioxidant Dibunolo
therapeutic effectiveness vs Dibunolo ([4]; 100 mg, p<0.001): exceeded that of Dibunolo in a reliable manner
dose with the greatest therapeutic effect ([4]; intramuscular): 80 mg/kg
extension of life under high-level hypoxia ([4]; intramuscular, all doses): extended life under conditions of high-level hypoxia in all cases
therapeutic effect on last increase in dose ([4]; last increase in administered amount): did not increase the therapeutic effect achieved
rejection process vs traditional therapy [5]: slowed the rejection process down considerably
reduction of induced convulsions [6]: did not reduce the induced convulsions
prevention of Corazolum- and strychnine-induced convulsions ([6]; preventive administration): did not prevent Corazolum- and strychnine-induced convulsions
pain threshold (male mice): nor did it cause changes in muscle tone or modifications in the pain threshold
natural orientation reflex (male mice; intraabdominal): did not suppress the natural orientation reflex
muscle tone (male mice; pivot pin method): nor did it cause changes in muscle tone
pharmacological activity, anti-hypoxic and defensive action ([7]; doses of 10 to 300 mg/kg): possess a pronounced pharmacological activity
therapeutic effects ([7]; in vivo): major therapeutic effects
extension of Hexenalum-induced sleep (Hexenalum-induced sleep): did not cause a noteworthy extension of the Hexenalum-induced sleep
